Laboratory results from patent publication US20240293563A1, “GLP-1 RECEPTOR LIGAND MOIETY CONJUGATED OLIGONUCLEOTIDES AND USES THEREOF” (priority 2017, published 2024).
Square brackets hold non-standard residues; d marks the D form. Side chains are listed from the residue outwards. Ends that are not written are not given here. 5'‑hexylamino oligonucleotide ISIS 722061 = not defined here; 5'‑hexylamino oligonucleotide ION 913192 = not defined here; Aib = CC(C)(N)C(=O)O; Mpa = O=C(O)CCS

Tests used:
FoxO1 protein [1] = experiment: FoxO1 protein levels in islets isolated from ob/ob mice treated for 6 weeks; assay type: in vivo, mouse
Description: Pancreatic islets were isolated by collagenase digestion from pancreas collected from euthanized 12 to 15 weeks old female B6.Cg-Lepob/J mice and maintained in tissue culture until use. 150 intact islets were placed in plastic Petri Dishes and treated with 1 μM of antisense oligonucleotides for 3 hrs every 24 hrs and harvested after approximately 24 hrs, 48 hrs or 96 hrs total treatment time respectively. After the treatment period, islets were harvested, and half of the islets were used to measure FOXO1 mRNA levels as described herein (Example 9). Half of the islets were homogenized in M-PER protein extraction reagent (Thermo Scientific) containing a protease inhibitor cocktail (Complete Mini and phosphoSTOP, Roche Diagnostics). The protein content of lysates were quantitated using BCA Assay Reagent (Pierce). […] For the anti-FoxO1 antibody, the secondary antibody was HRP-conjugated polyclonal goat anti-Rabbit P0448 (DAKO) and for the anti-α-tubulin antibody, the secondary antibody was HRP-conjugated polyclonal goat anti-mouse P0447 (DAKO). Enhanced chemiluminescence reagents (Pierce) were used for detection. Male ob/ob mice (B6.V-Lepob/OlaHsd, Harlan) were assigned to five treatment groups receiving either vehicle, 0.1 μmol/kg ISIS 776102, 0.1 μmol/kg ION 913195, 0.03 ION 913193 or 1 μmol/kg ION 913193. All animals were treated once weekly for 6 weeks. Approximately 120 hrs after last dose all animals were sacrificed, liver samples collected and pancreatic islets isolated, as described herein (Example 9), for mRNA analysis. FOXO1 mRNA levels were quantified as described herein (Example 9) and mRNA levels expressed relative to housekeeping gene in each sample (RPLP0). Male ob/ob mice were assigned to five treatment groups as described herein (Example 17) Approximately 120 hrs after last dose all animals were sacrificed and pancreatic islets isolated for FoxO1 protein analysis as described herein (Example 10). Random samples were selected from each treatment group and loaded on each gel such that at least one sample from each treatment group was analysed on the same gels. FoxO1 protein levels were measured by quantifying the intensity and normalized against the α-tublin levels in the same sample. All samples within individual gels were expressed as percentage of the levels measured in islets of animals receiving ION 913195.

FOXO1 mRNA [2] = experiment: FOXO1 mRNA in isolated islets and liver after 6 weeks repeated administration to ob/ob mice; assay type: in vivo, mouse; conditions: ob/ob mice
Description: Pancreatic islets were isolated by collagenase digestion from pancreas collected from exsanguinated 12 to 15 weeks old female C57BL/6Crl mice. Islets were maintained in tissue culture until use. Islet were dissociated into single cells by shaking in media containing a low extracellular calcium concentration. 10 to 20 intact or dissociated islets were plated on plastic Petri Dishes and treated with 10 μM of antisense oligonucleotides for approximately 24 hrs. After the treatment period cells were harvested, RNA isolated, adjusted to total RNA content, as measured by RIBOGREEN®. MALAT1 or FOXO1 mRNA levels measured by quantitative real-time PCR. […] All data was normalized to the mRNA level of the house keeping gene (RPLP0) in the same sample, measured using a primer probe set with forward sequence […] NO: 71), reverse sequence […] NO: 72) and probe sequence […] NO: 73). Male ob/ob mice (B6.V-Lepob/OlaHsd, Harlan) were assigned to five treatment groups receiving either vehicle, 0.1 μmol/kg ISIS 776102, 0.1 μmol/kg ION 913195, 0.03 ION 913193 or 1 μmol/kg ION 913193. All animals were treated once weekly for 6 weeks. Approximately 120 hrs after last dose all animals were sacrificed, liver samples collected and pancreatic islets isolated, as described herein (Example 9), for mRNA analysis. FOXO1 mRNA levels were quantified as described herein (Example 9) and mRNA levels expressed relative to housekeeping gene in each sample (RPLP0).

FOXO1 mRNA [3] = experiment: FOXO1 mRNA in cultured mouse primary islets of Langerhans treated with ASO; assay type: cell-based; conditions: for Islet FOXO1 mRNA levels relative to control (RPLP0): percent of untreated cells, 1 μM ASO 3 hrs every 24 hrs
Description: Pancreatic islets were isolated by collagenase digestion from pancreas collected from exsanguinated 12 to 15 weeks old female C57BL/6Crl mice. Islets were maintained in tissue culture until use. Islet were dissociated into single cells by shaking in media containing a low extracellular calcium concentration. 10 to 20 intact or dissociated islets were plated on plastic Petri Dishes and treated with 10 μM of antisense oligonucleotides for approximately 24 hrs. After the treatment period cells were harvested, RNA isolated, adjusted to total RNA content, as measured by RIBOGREEN®. MALAT1 or FOXO1 mRNA levels measured by quantitative real-time PCR. […] All data was normalized to the mRNA level of the house keeping gene (RPLP0) in the same sample, measured using a primer probe set with forward sequence […] NO: 71), reverse sequence […] NO: 72) and probe sequence […] NO: 73). Pancreatic islets were isolated by collagenase digestion from pancreas collected from euthanized 12 to 15 weeks old female B6.Cg-Lepob/J mice and maintained in tissue culture until use. 150 intact islets were placed in plastic Petri Dishes and treated with 1 μM of antisense oligonucleotides for 3 hrs every 24 hrs and harvested after approximately 24 hrs, 48 hrs or 96 hrs total treatment time respectively. After the treatment period, islets were harvested, and half of the islets were used to measure FOXO1 mRNA levels as described herein (Example 9). Half of the islets were homogenized in M-PER protein extraction reagent (Thermo Scientific) containing a protease inhibitor cocktail (Complete Mini and phosphoSTOP, Roche Diagnostics). The protein content of lysates were quantitated using BCA Assay Reagent (Pierce). […] For the anti-FoxO1 antibody, the secondary antibody was HRP-conjugated polyclonal goat anti-Rabbit P0448 (DAKO) and for the anti-α-tubulin antibody, the secondary antibody was HRP-conjugated polyclonal goat anti-mouse P0447 (DAKO). Enhanced chemiluminescence reagents (Pierce) were used for detection.

FoxO1 protein [4] = experiment: FoxO1 protein (Western Blot) in cultured mouse primary islets of Langerhans treated with ASO; assay type: cell-based; conditions: Western Blot normalized to α-tubulin; islets treated for 96 hours; 1 μM
Description: Pancreatic islets were isolated by collagenase digestion from pancreas collected from euthanized 12 to 15 weeks old female B6.Cg-Lepob/J mice and maintained in tissue culture until use. 150 intact islets were placed in plastic Petri Dishes and treated with 1 μM of antisense oligonucleotides for 3 hrs every 24 hrs and harvested after approximately 24 hrs, 48 hrs or 96 hrs total treatment time respectively. After the treatment period, islets were harvested, and half of the islets were used to measure FOXO1 mRNA levels as described herein (Example 9). Half of the islets were homogenized in M-PER protein extraction reagent (Thermo Scientific) containing a protease inhibitor cocktail (Complete Mini and phosphoSTOP, Roche Diagnostics). The protein content of lysates were quantitated using BCA Assay Reagent (Pierce). […] For the anti-FoxO1 antibody, the secondary antibody was HRP-conjugated polyclonal goat anti-Rabbit P0448 (DAKO) and for the anti-α-tubulin antibody, the secondary antibody was HRP-conjugated polyclonal goat anti-mouse P0447 (DAKO). Enhanced chemiluminescence reagents (Pierce) were used for detection. […] Protein levels were quantified by measuring the intensity of the bands on the gel normalized to the intensity of α-tubulin, and expressed as percent of vehicle treated islets. FoxO1 protein levels were set to 100% in vehicle treated islets. […]

MALAT1 [5] = experiment: MALAT1 in situ hybridization in beta islet cells after i.v. GLP-1 ASO conjugates with various linkers; assay type: in vivo, mouse; conditions: male C57BL/6 mice; intravenous 0.6 μmol/kg/week once a week for three weeks; 72 hours after final injection
MALAT-1 = experiment: Dose-dependent reduction of MALAT-1 expression in LVX-GLP1R cells; assay type: cell-based, human
Description: HEK cells stably expressing FLAG-tagged GLP1R were generated by infecting HEK 293 cells with FLAG-tagged GLP1R containing lentivirus produced by transfection of 293T cells with pLVX-IRES-Puro (Clontech Laboratories Inc., Mountainview, CA) harboring the FLAG-GLP1R insert. Infected cells were selected with puromycin (2 μg/ml) and then analyzed for receptor expression by western blot and immunofluorescence. Cultured GLP1R cells were plated at a density of 10,000 cells per well and treated with 0.3, 1, 3, 9, 27, 82, 247, 741, 2,222, 6,667, and 20,000 nM modified oligonucleotide for approximately 24 hours. After the treatment period, total RNA was prepared using an RNeasy mini kit (Qiagen, Valencia, CA, USA) and qRT-PCR was performed using the primer probe set RTS2739 (forward sequence: […] (SEQ ID NO: 74), reverse sequence: […] (SEQ ID NO: 75), probe sequence: […] (SEQ ID NO: 76). Briefly, ˜50 ng total RNA in 5 d water was mixed with 0.3 d primer probe sets containing forward and reverse primers (10 μM of each) and fluorescently labeled probe (3 μM), 0.3 W RT enzyme mix (Qiagen), 4.4 d RNase-free water, and 10 d of 2×PCR reaction buffer in a 20 d reaction. Reverse transcription was performed at 48° C. for 10 min, 40 cycles of PCR were conducted at 94° C. for 20 s, and 60° C. for 20 s within each cycle, using StepOne Plus RT-PCR system (Applied Biosystems, Phoenix, AZ, USA). The mRNA levels were normalized to the amount of total RNA present in each reaction as determined by Ribogreen assay (Life Technologies) and normalized to the saline control (100% expression).

MALAT1 [6] = experiment: Effect of peptide composition and attachment point on peptide-conjugated ASO activity in LVX-GLP1R cells; assay type: cell-based, human; conditions: 7 doses in a 4-fold dilution series, MALAT1 RNA
[7] = 0.03 μmol/kg once weekly for 6 weeks
[8] = 0.1 μmol/kg once weekly for 6 weeks

Substance: ION 913193 (H[Aib]EGTFTSDVSSYLEEQAAKEFIAWLVKGGPSSGAPPPSC([Mpa-5'‑hexylamino oligonucleotide ION 913192])-NH2; reading uncertain; also: Cys40 joined to the linker by a disulfide)
- Foxo1 protein levels reduced relative to ION 913195 (FoxO1 protein [1]; [7]): 57%
- Foxo1 protein levels reduced relative to animals treated with 0.1 μmol/kg ISIS 776102 (FoxO1 protein [1]; [7]): 64%
- Foxo1 protein levels reduced relative to ION 913195 (FoxO1 protein [1]; [8]): 81%
- Foxo1 protein levels reduced relative to animals treated with 0.1 μmol/kg ISIS 776102 (FoxO1 protein [1]; [8]): 36%
- average FOXO1 mRNA reduction in isolated islets of Langerhans (FOXO1 mRNA [2]; [7]): 42%
- average FOXO1 mRNA reduction in isolated islets of Langerhans (FOXO1 mRNA [2]; [8]): 72%
- reduction in FOXO1 mRNA (FOXO1 mRNA [3]; mouse islets, 1 μM ASO, summary of Table 2): more than 70%
- Islet FOXO1 mRNA levels relative to control (RPLP0) (FOXO1 mRNA [3]; 24 hours): 31%
- Islet FOXO1 mRNA levels relative to control (RPLP0) (FOXO1 mRNA [3]; 48 hours): 30%
- Islet FOXO1 mRNA levels relative to control (RPLP0) (FOXO1 mRNA [3]; 96 hours): 25%
- FoxO1 protein levels, percent of vehicle treated islets (FoxO1 protein [4]): 5%

Substance: ION 962963 (H[Aib]EGTFTSDVSSYLEEQAAKEFIAWLVKGGPSSGAPPPSC([Mpa-5'‑hexylamino oligonucleotide ISIS 722061])-NH2; reading uncertain; also: Cys40 joined to the linker by a disulfide)
- MALAT1 expression in beta islet cells compared to saline control (in situ hybridization) (MALAT1 [5]): reduced
- dose-dependent inhibition of MALAT-1 (MALAT-1; GLP1R HEK cells, GLP-1 complexed ASOs with or without a TCA linker versus parent): increased dose-dependent inhibition
- IC50 (MALAT-1; approximately 24 hours, read-out: IC50 (MALAT-1 expression in GLP1R HEK cells)): 350 nM

Substance: ION 1083569 (HSEGTFTSDVSSYLEGQAAKEFIAWLVKGRX; C-terminal Z = 4-azidonorleucine, joined by a click reaction to the 5'-BCN MALAT1 oligonucleotide ION 791173; C-terminal amide)
- IC50 (MALAT1 [6]): 2020 nM
